The record followed here is publication PMC10141604, “Small-Molecule Inhibition of Androgen Receptor Dimerization as a Strategy against Prostate Cancer” (ACS Central Science, 2023).

One data set has as its target T1, AR LBD (Homo sapiens, UniProt P10275).
T1 construct: The AR LBD (663-919) was fused into the pET50b vector with Nus-tag; Nus-tag (cleaved yes); made in house; host or cells: E. coli BL21 (DE3)
The experiment in a line: Biolayer interferometry (BLI) binding to purified AR LBD. The method, then:
in 4 L LB media at 37°C until OD600 arrived to 0.6, then supplemented with 0.5 mM Isopropyl β-D-1-Thiogalactopyranoside (IPTG) and 20 μM DHT. After incubated at 16 °C for 16-18 h, the cells were collected by centrifugation at 3,500 × g for 0.5 h. The cell mass was resuspended in Lysis buffer (20 mM Tris -HCL pH 7.4, 5 mM imidazole,150 mM NaCl, 10% Glycerol, 2 mM Dithiothreitol (DTT) and 10 μM DHT) and lysed at 800 bar for at least 5 cycles. The lysis was centrifugated at 14,000 × g for 0.5 h, and the supernatant was loaded to HisTrap TM […] HP column (#17524802, GE Healthcare), followed by washing and eluting steps using 65 mM imidazole and 300 mM imidazole, respectively.
The elution from Ni-NTA were cut by HRV-3C protease, and further purified by […]
The purified AR LBD protein was biotinylated using EZ-Link™ Sulfo-NHS-LC-LC-Biotin (#A35358, ThermoFisher) in 500 μL phosphate -buffered saline with 0.02% Tween -20 (v/v, PBST) buffer for 2 h at 4 °C. […] The kinetics of the AR LBD and M17-B15 association was evaluated by soaking the AR LBD-loaded sensors into wells containing various concentrations of M17 -B15 (6.25, 12.5, 25, 50, 100 μM) for 60 s, followed by dissociation of M17 -B15 by soaking the sensors in the PBST buffer for 60 s. The kinetics values were calculated by fitting the kinetic data based on a 1:1 binding model using Forté Bio data analysis (v.11.1) software .

The next data set addresses T2, AR LBP (Rattus norvegicus, UniProt P15207).
T2 construct: purchased Invitrogen Life Technologies A15880
Briefly: Competitive ligand-binding assay (PolarScreen AR competitor assay). The procedure:
Competitive Ligand Binding Assay
The binding affinities of M17 and M17-B15 to the LBP of AR LBD were determined
using PolarScreen™ Androgen Receptor Competitor Assay Kit (#A15880, Invitrogen Life
Technologies) according to the user manual. […]

In data set [1] the test system is DHT-induced AR nuclear translocation in LNCaP cells. The experiment in a line: Nuclear and cytoplasmic fractionation, AR nuclear translocation. It is filed as cell-based. To be noted: 10 μM, 10 nM DHT, 16 h.
Experimental: h incubation at room temperature, each membrane was further incubated with specific
Lamin B1, #AF1408, Beyotime Biotechnology) and then the corresponding secondary antibody (HRP-conjugated Goat Anti-Rabbit IgG, # D110058, Sangon Biotech). The Image J program was performed for quantitative analysis of the immunoreactive bands.
Extraction of Nuclear and Cytoplasmic Fractions
presence of 10 nM DHT and incubated for 16 h. The NE-PER Nuclear and Cytoplasmic
extraction of nuclear and cytoplasmic proteins according to manufacturer’s protocol.
A further data set concerns 22RV1. The experiment in a line: MTT cell viability assay, 22RV1. It is filed as cell-based. The note with it: 72 h. The method, then:
(§1) 3-(4,5-dimethythiazol-2-yl)-2,5-diphenyl-2-H-tetrazolium bromide (MTT) colorimetric assay was employed to investigate cell viability. Cells were seeded into 96-well plates with 2-5× 10^3 cells per well (5× 10^3 cells/well for LNCaP, 22RV1, NIH-3T3, GES-1, Chang, […]
(§2) NCI-H1299, U2OS, U87) for 1 day incubation at 37 °C. Then, the cells were treated with various concentrations of compounds (22.86 nM - 50 μM) and incubated for 72 h. Then, 10 μl MTT (5 mg/ml) was added into each well and incubated for 4 h. Afterwards, 100 μl of triplex 10% SDS-0.1% HCl-phosophate-buffered saline (PBS) solutions was added into each well and incubated for overnight. The absorbance at 570 nm was measured (Eon, Bioteck, Winooski, VT). […]
Background: Tetrazolium dyes change colour on reduction, which living cells bring about.

For data set [2], the system named is human gastric epithelial cell (GES-1). Briefly: MTT cell viability assay, GES-1. It is filed as cell-based. The note with it: 72 h. The procedure:
as §1, §2

T1 sequence (P10275 663-919): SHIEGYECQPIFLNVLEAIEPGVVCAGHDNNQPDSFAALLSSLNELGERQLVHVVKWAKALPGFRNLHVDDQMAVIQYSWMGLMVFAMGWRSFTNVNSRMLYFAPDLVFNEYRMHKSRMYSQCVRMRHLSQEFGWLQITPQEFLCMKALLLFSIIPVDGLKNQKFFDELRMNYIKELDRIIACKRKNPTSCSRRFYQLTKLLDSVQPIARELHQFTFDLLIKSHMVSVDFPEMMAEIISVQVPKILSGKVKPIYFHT
T2 sequence (P15207 651-882 limits assumed): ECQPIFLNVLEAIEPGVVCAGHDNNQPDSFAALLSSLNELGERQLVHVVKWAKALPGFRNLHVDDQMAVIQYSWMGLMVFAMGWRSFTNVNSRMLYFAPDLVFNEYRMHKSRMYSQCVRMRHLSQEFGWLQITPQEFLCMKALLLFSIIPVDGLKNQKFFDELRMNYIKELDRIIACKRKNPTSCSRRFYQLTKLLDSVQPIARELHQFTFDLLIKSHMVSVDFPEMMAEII

`CC(=O)Cc1nsc(NC(=O)c2cc(-c3cccc(C(F)(F)F)c3)oc2C)n1` [Compound M17-B15]: the Kd (as a rule, the concentration at which binding is half-saturated) on AR LBD (1:1 binding model, read-out: equilibrium dissociation constant (KD)) is 13.2 µM. For the same compound, the koff at AR LBD (read-out: Kd (dissociation rate)) came out at 0.033 s⁻¹. In addition, the “binding to the conventional LBP” value at AR LBP is “does not target the LBP”. Moreover, the “DHT-induced AR nuclear translocation” value in data set [1] is “inhibit”. Further, in the data set with 22RV1, the “inhibition on the cell viability of 22RV1” value was “does not show obvious inhibition”. Moreover, the “cytotoxicity against GES-1” value in data set [2] was “negligible cytotoxicity”.

With `CNC(=O)c1ccc(N2C(=S)N(c3ccc(C#N)c(C(F)(F)F)c3)C(=O)C2(C)C)cc1F` [Enz, enzalutamide, reference compound], the “cytotoxicity against GES-1” value in data set [2] is reported as “negligible cytotoxicity”.
